Measurements as given in article PMC9861858, “Stereoselective Synthesis and Antiproliferative Activities of Tetrafunctional Diterpene Steviol Derivatives” (International Journal of Molecular Sciences, 2023).
Converted amounts (≈) assume the structure as drawn. “Also recorded” adds a separate entry of the source.

Assays:
[1] = test system: NIH/3T3 fibroblasts; test: MTT assay on fibroblasts (selectivity); format: cell-based, murine; conditions: Mus musculus, 72 h, values <20% considered negligible, read-out: Growth inhibition (%) ± SEM, NIH/3T3; for inhibition at 10 µM: NIH3T3, 10 μM; for inhibition at 30 µM: NIH3T3, 30 μM
Method in brief: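 Seeding: 5000 cells/well, overnight. Treatment: compounds added at 10 or 30 μM, 72 h under standard culture conditions. Detection: MTT for 4 h, then DMSO dissolution of crystals with shaking at 37 °C for 60 min and reading at 545 nm. Cisplatin served as reference.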

[2] = test system: SiHa cells; test: MTT antiproliferative assay, SiHa; format: cell-based, human; conditions: for inhibition at 10 µM / inhibition at 30 µM: Homo sapiens, SiHa, 72 h, values <20% considered negligible, read-out: Growth inhibition (%) ± SEM, SiHa
Method in brief: (§1)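 Cells seeded at 5000 cells/well, treated next day with compounds at 10 μM and 30 μM for 72 h at 37 °C, 5% CO2 in EMEM with 10% FBS. MTT added for 4 h, formazan dissolved in DMSO, absorbance read at 545 nm; cisplatin as reference.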

[3] = test system: HeLa cells; test: MTT antiproliferative assay, HeLa; format: cell-based, human; conditions: for Antiproliferative effect on HeLa, in words: 10 and 30 μM; for inhibition at 10 µM / inhibition at 30 µM: Homo sapiens, HeLa, 72 h, values <20% considered negligible, read-out: Growth inhibition (%) ± SEM, HeLa
Method in brief: as §1

[4] = Kinetic aqueous solubility; format: physicochemical; conditions: for Kinetic aqueous solubility, category in words: PBS pH 7.4, 37 °C, 2 h; for solubility kinetic at 2 h: phosphate buffered saline with 5% DMSO, aqueous with cosolvent or surfactant or cyclodextrin, kinetic from dmso stock, after 2 h, at 37 °C in PBS, pH 7.4, 5% DMSO, target concentration 500 μM, mean ± S.E.M, n = 3
Method in brief: (§2)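 Kinetic solubility: filtrates quantified by HPLC-DAD-MS against 5–500 μM calibration, target concentration 500 μM. PAMPA-GI: pH 6.5 phosphate donor, pH 7.4 PBS/5% DMSO acceptor, phosphatidylcholine/cholesterol 2:1 in dodecane membrane, 4 h at 37 °C; Pe and membrane retention calculated from HPLC-DAD-MS concentrations.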

[5] = Intestinal-specific parallel artificial membrane permeability assay (PAMPA-GI); format: in vitro ADME; conditions: for Intestinal-specific permeability (Pe), category in words: PAMPA-GI; for Papp at 4 h, 500 µM: PAMPA, read-out: PAMPA-GI Pe; for Papp at 4 h, 500 µM / PAMPA-GI MR (membrane retention): gradient pH system (pH donor 6.5 → pH acceptor 7.4) after 4 h, at 37 °C, mean ± S.E.M, n = 3
Method in brief: as §2

[6] = test system: MCF-7 cells; test: MTT antiproliferative assay, MCF-7; format: cell-based, human; conditions: for Antiproliferative effect / selectivity on MCF-7, in words: 10 and 30 μM; for inhibition at 10 µM / inhibition at 30 µM: Homo sapiens, 72 h, values <20% considered negligible, read-out: Growth inhibition (%) ± SEM, MCF-7; for inhibition at 10 µM: MCF7, 10 μM; for inhibition at 30 µM: MCF7, 30 μM
Method in brief: as §1

[7] = test system: MDA-MB-231 cells; test: MTT antiproliferative assay, MDA-MB-231; format: cell-based, human; conditions: for inhibition at 10 µM / inhibition at 30 µM: Homo sapiens, 72 h, values <20% considered negligible, read-out: Growth inhibition (%) ± SEM, MDA-MB-231; for inhibition at 10 µM: MDA-MB-231, 10 μM; for inhibition at 30 µM: MDA-MB-231, 30 μM; for Antiproliferative effect / selectivity on MDA-MB-231, in words: 10 and 30 μM
Method in brief: as §1

SMILES	inhibition at 10 µM [1] [%]	inhibition at 30 µM [1] [%]	inhibition at 10 µM [2] [%]	inhibition at 30 µM [2] [%]	Antiproliferative effect on HeLa, in words [3]	inhibition at 10 µM [3] [%]	inhibition at 30 µM [3] [%]	Kinetic aqueous solubility, category in words [4]	solubility kinetic at 2 h [4] [µM]	Intestinal-specific permeability (Pe), category in words [5]	Papp at 4 h, 500 µM [5] [×10⁻⁶ cm/s]	PAMPA-GI MR (membrane retention) [5] [%]	Antiproliferative effect / selectivity on MCF-7, in words [6]	inhibition at 10 µM [6] [%]	inhibition at 30 µM [6] [%]	inhibition at 10 µM [7] [%]	inhibition at 30 µM [7] [%]	Antiproliferative effect / selectivity on MDA-MB-231, in words [7]	Antiproliferative effect on SiHa, in words ([2]; 10 and 30 μM)
CC[C@H](NC[C@@]1(O)[C@H](O)[C@@]23CCC4[C@@](C)(CCC[C@@]4(C)C(=O)OC)C2CC[C@]1(O)C3)c1ccccc1 (stereo partly drawn) [Compound 16, (4R,6aR,7R,8R,9S,11bS)-Methyl 7,8,9-Trihydroxy-4,11b-dimethyl-8-((((S)-1-phenylpropyl)amino)methyl)tetradecahydro-6a,9-methanocyclohepta[a]naphthalene-4-carboxylate]	< 20	95.12 ± 0.41	< 20	96.73 ± 0.65	moderate inhibition	53.5 ± 1.99	98.33 ± 0.32	moderate	89.9 ± 8.5 (≈ 44.9 µg/mL)	poor permeability	0.25 ± 0.09	44.6 ± 4.2	higher selectivity; also recorded: performed best	80.7 ± 2.37	97.1 ± 0.23	39.3 ± 1.99	96.65 ± 0.37		
CC[C@@H](NC[C@@]1(O)[C@H](O)[C@@]23CCC4[C@@](C)(CCC[C@@]4(C)C(=O)OC)C2CC[C@]1(O)C3)c1ccccc1 (stereo partly drawn) [Compound 15, (4R,6aR,7R,8R,9S,11bS)-Methyl 7,8,9-Trihydroxy-4,11b-dimethyl-8-((((R)-1-phenylpropyl)amino)methyl)tetradecahydro-6a,9-methanocyclohepta[a]naphthalene-4-carboxylate]	21 ± 0.96	94.23 ± 0.31	22.4 ± 1.42	95.67 ± 0.76	modest inhibition	63.6 ± 1.54	97.25 ± 0.5		145 ± 28.2 (≈ 72.5 µg/mL)	poor permeability	0.14 ± 0.04	46.8 ± 3.3	strong and selective antiproliferative effect; also recorded: performed best	91 ± 1.52	96.47 ± 0.26	68.3 ± 2.86	95.63 ± 0.45	decent activity; also recorded: smaller but also selective antiproliferative effect	
COC(=O)[C@]1(C)CCC[C@@]2(C)C3CC[C@]4(O)C[C@@]3(CCC21)[C@@H](O)[C@]4(O)CNCc1ccc(F)cc1 (stereo partly drawn) [Compound 9, (4R,6aR,7R,8R,9S,11bS)-Methyl 8-(((4-Fluorobenzyl)amino)methyl)-7,8,9-trihydroxy-4,11b-dimethyltetradecahydro-6a,9-methanocyclohepta[a]naphthalene-4-carboxylate]	25.9 ± 0.94	92.4 ± 1.01	54.6 ± 3.42	95.17 ± 0.37		42.5 ± 1.42	96.8 ± 0.74	moderate	42.1 ± 10.8 (≈ 20.6 µg/mL)		0.4 ± 0.04	63.8 ± 4.9	strong and selective antiproliferative effect; also recorded: performed best	96.4 ± 0.47	96.19 ± 0.65	83 ± 1.71	93.63 ± 0.36	decent activity; also recorded: smaller but also selective antiproliferative effect	modest inhibition
COC(=O)[C@]1(C)CCC[C@@]2(C)C3CC[C@]4(O)C[C@@]3(CCC21)[C@@H](O)[C@]4(O)CNCc1ccccc1 (stereo partly drawn) [Compound 5, (4R,6aR,7R,8R,9S,11bS)-Methyl 8-((Benzylamino)methyl)-7,8,9-trihydroxy-4,11b-dimethyltetradecahydro-6a,9-methanocyclohepta[a]naphthalene-4-carboxylate]	< 20	101.1 ± 0.43	< 20	< 20		< 20	95.77 ± 0.26		291 ± 35.5 (≈ 137 µg/mL)		0.64 ± 0.03	29.8 ± 0.3		59.6 ± 2.73	96.42 ± 0.27	34.6 ± 2.98	95.8 ± 0.63		
COC(=O)[C@]1(C)CCC[C@@]2(C)C3CC[C@]4(O)C[C@@]3(CCC21)[C@@H](O)[C@]4(O)CN(C)Cc1ccccc1 (stereo partly drawn) [Compound 6, (4R,6aR,7R,8R,9S,11bS)-Methyl 8-((Benzyl(methyl)amino)methyl)-7,8,9-trihydroxy-4,11b-dimethyltetradecahydro-6a,9-methanocyclohepta[a]naphthalene-4-carboxylate]	< 20	89.3 ± 2.62	< 20	< 20		< 20	< 20		114 ± 16 (≈ 55.5 µg/mL)		0.23 ± 0.08	67.3 ± 8.6		< 20	51.7 ± 2.54	< 20	82.56 ± 0.69	slight selectivity	
